Assay results published in patent publication US20060057073A1, “Wet granulation process” (Pari GmbH, priority 2002, published 2006).

Experiments:
[1] = drug substance as free acid; cited from earlier work
[2] = Bulk density according to Ph. Eur.; format: physicochemical
[3] = Particle size by laser diffraction (Malvern MasterSizer 2000, dry dispersing); format: physicochemical; conditions: mean diameter of the volume distribution; mean of three measurements
[4] = base; cited from earlier work

SMILES	Aqueous solubility (Aqueous solubility) [%]	Aqueous solubility (in words) (Aqueous solubility; in water)	intrinsic pH [1]	Bulk density [2] [g/mL]	D50% (laser diffraction) [3] [μm]	pK [4]
C[C@H]1[C@H](NC(=O)/C(=N\OC(C)(C)C(=O)O)c2csc(N)n2)C(=O)N1S(=O)(=O)O [Aztreonam]	<0.1	nearly insoluble	about 1	0.49		
COc1ccc(Cc2nccc3cc(OC)c(OC)cc23)cc1OC [papaverine]				0.41	28.5	8.07
